Assay results taken from ChEMBL document CHEMBL5154747, “Discovery of new carbonic anhydrase IX inhibitors as anticancer agents by toning the hydrophobic and hydrophilic rims of the active site to encounter the dual-tail approach” (Eur J Med Chem, 2022).

Tests used:
Type in all cases: functional
CCRF-CEM = assay: Anticancer activity against human CCRF-CEM cells assessed as cell growth inhibition at 10 uM incubated for 48 hrs by SRB assay relative to control; settings: read-out: GI
K562 = assay: Anticancer activity against human K562 cells assessed as cell growth inhibition at 10 uM incubated for 48 hrs by SRB assay relative to control; settings: read-out: GI
HOP-92 = assay: Anticancer activity against human HOP-92 cells assessed as cell growth inhibition at 10 uM incubated for 48 hrs by SRB assay relative to control; settings: read-out: GI
NCI-H23 = assay: Anticancer activity against human NCI-H23 cells assessed as cell growth inhibition at 10 uM incubated for 48 hrs by SRB assay relative to control; settings: read-out: GI
NCI-H322M [1] = assay: Anticancer activity against human NCI-H322M cells assessed as cell growth inhibition at 10 uM incubated for 48 hrs by SRB assay relative to control; settings: read-out: GI
NCI-H522 = assay: Anticancer activity against human NCI-H522 cells assessed as cell growth inhibition at 10 uM incubated for 48 hrs by SRB assay relative to control; settings: read-out: GI
HCT-15 [2] = assay: Anticancer activity against human HCT-15 cells assessed as cell growth inhibition at 10 uM incubated for 48 hrs by SRB assay relative to control; settings: read-out: GI
HT-29 = assay: Anticancer activity against human HT-29 cells assessed as cell growth inhibition at 10 uM incubated for 48 hrs by SRB assay relative to control; settings: read-out: GI
SW-620 = assay: Anticancer activity against human SW-620 cells assessed as cell growth inhibition at 10 uM incubated for 48 hrs by SRB assay relative to control; settings: read-out: GI
SF-295 = assay: Anticancer activity against human SF-295 cells assessed as cell growth inhibition at 10 uM incubated for 48 hrs by SRB assay relative to control; settings: read-out: GI
SF-539 = assay: Anticancer activity against human SF-539 cells assessed as cell growth inhibition at 10 uM incubated for 48 hrs by SRB assay relative to control; settings: read-out: GI
SNB-75 = assay: Anticancer activity against human SNB-75 cells assessed as cell growth inhibition at 10 uM incubated for 48 hrs by SRB assay relative to control; settings: read-out: GI
LOX IMVI = assay: Anticancer activity against human LOX IMVI cells assessed as cell growth inhibition at 10 uM incubated for 48 hrs by SRB assay relative to control; settings: read-out: GI
SK-MEL-28 = assay: Anticancer activity against human SK-MEL-28 cells assessed as cell growth inhibition at 10 uM incubated for 48 hrs by SRB assay relative to control; settings: read-out: GI
SK-OV-3 = assay: Anticancer activity against human SK-OV-3 cells assessed as cell growth inhibition at 10 uM incubated for 48 hrs by SRB assay relative to control; settings: read-out: GI
A498 = assay: Anticancer activity against human A498 cells assessed as cell growth inhibition at 10 uM incubated for 48 hrs by SRB assay relative to control; settings: read-out: GI
CAKI-1 = assay: Anticancer activity against human CAKI-1 cells assessed as cell growth inhibition at 10 uM incubated for 48 hrs by SRB assay relative to control; settings: read-out: GI
RXF 393 = assay: Anticancer activity against human RXF 393 cells assessed as cell growth inhibition at 10 uM incubated for 48 hrs by SRB assay relative to control; settings: read-out: GI
DU-145 = assay: Anticancer activity against human DU-145 cells assessed as cell growth inhibition at 10 uM incubated for 48 hrs by SRB assay relative to control; settings: read-out: GI
OVCAR-4 [3] = assay: Anticancer activity against human OVCAR-4 cells assessed as cell growth inhibition at 10 uM incubated for 48 hrs by SRB assay relative to control; settings: read-out: GI
SR = assay: Anticancer activity against human SR cells assessed as cell growth inhibition incubated for 48 hrs by SRB assay
A549 = assay: Anticancer activity against human A549 cells assessed as cell growth inhibition incubated for 48 hrs by SRB assay
EKVX = assay: Anticancer activity against human EKVX cells assessed as cell growth inhibition incubated for 48 hrs by SRB assay
NCI-H322M [4] = assay: Anticancer activity against human NCI-H322M cells assessed as cell growth inhibition incubated for 48 hrs by SRB assay
NCI-H460 = assay: Anticancer activity against human NCI-H460 cells assessed as cell growth inhibition incubated for 48 hrs by SRB assay
HCT-15 [5] = assay: Anticancer activity against human HCT-15 cells assessed as cell growth inhibition incubated for 48 hrs by SRB assay
KM12 = assay: Anticancer activity against human KM12 cells assessed as cell growth inhibition incubated for 48 hrs by SRB assay
SNB-19 = assay: Anticancer activity against human SNB-19 cells assessed as cell growth inhibition incubated for 48 hrs by SRB assay
M14 = assay: Anticancer activity against human M14 cells assessed as cell growth inhibition incubated for 48 hrs by SRB assay
MDA-MB-435 = assay: Anticancer activity against human MDA-MB-435 cells assessed as cell growth inhibition incubated for 48 hrs by SRB assay
SK-MEL-5 = assay: Anticancer activity against human SK-MEL-5 cells assessed as cell growth inhibition incubated for 48 hrs by SRB assay
UACC-257 = assay: Anticancer activity against human UACC-257 cells assessed as cell growth inhibition incubated for 48 hrs by SRB assay
OVCAR-3 = assay: Anticancer activity against human OVCAR-3 cells assessed as cell growth inhibition incubated for 48 hrs by SRB assay
OVCAR-4 [6] = assay: Anticancer activity against human OVCAR-4 cells assessed as cell growth inhibition incubated for 48 hrs by SRB assay
OVCAR-8 = assay: Anticancer activity against human OVCAR-8 cells assessed as cell growth inhibition incubated for 48 hrs by SRB assay
NCI/ADR-RES = assay: Anticancer activity against human NCI/ADR-RES cells assessed as cell growth inhibition incubated for 48 hrs by SRB assay
786-0 = assay: Anticancer activity against human 786-0 cells assessed as cell growth inhibition incubated for 48 hrs by SRB assay
ACHN = assay: Anticancer activity against human ACHN cells assessed as cell growth inhibition incubated for 48 hrs by SRB assay
SN12C = assay: Anticancer activity against human SN12C cells assessed as cell growth inhibition incubated for 48 hrs by SRB assay
UO-31 = assay: Anticancer activity against human UO-31 cells assessed as cell growth inhibition incubated for 48 hrs by SRB assay
[7] = read-out: LC50 (the source's name)

SMILES: Cc1nn(-c2ccccc2)cc1/C=N/Nc1nc(Nc2ccccc2)nc(Nc2ccc(S(N)(=O)=O)cc2)n1
- inhibition of growth at 10 µM (CCRF-CEM): 91%
- inhibition of growth at 10 µM (K562): 90%
- inhibition of growth at 10 µM (HOP-92): 113%
- inhibition of growth at 10 µM (NCI-H23): 114%
- inhibition of growth at 10 µM (NCI-H322M [1]): 90%
- inhibition of growth at 10 µM (NCI-H522): 100%
- inhibition of growth at 10 µM (HCT-15 [2]): 92%
- inhibition of growth at 10 µM (HT-29): 94%
- inhibition of growth at 10 µM (SW-620): 114%
- inhibition of growth at 10 µM (SF-295): 89%
- inhibition of growth at 10 µM (SF-539): 28%
- inhibition of growth at 10 µM (SNB-75): 55%
- inhibition of growth at 10 µM (LOX IMVI): 125%
- inhibition of growth at 10 µM (SK-MEL-28): 113%
- inhibition of growth at 10 µM (SK-OV-3): 49%
- inhibition of growth at 10 µM (A498): 130%
- inhibition of growth at 10 µM (CAKI-1): 127%
- inhibition of growth at 10 µM (RXF 393): 120%
- inhibition of growth at 10 µM (DU-145): 90%
- inhibition of growth at 10 µM (OVCAR-4 [3]): 85%
- GI50 (SR): 2450 nM
- CC50 (SR; [7]): > 100000 nM
- GI50 (A549): 1850 nM
- GI50 (EKVX): 2000 nM
- CC50 (EKVX; [7]): 35100 nM
- GI50 (NCI-H322M [4]): 2440 nM
- CC50 (NCI-H322M [4]; [7]): > 100000 nM
- GI50 (NCI-H460): 2770 nM
- CC50 (NCI-H460; [7]): > 100000 nM
- GI50 (HCT-15 [5]): 2670 nM
- CC50 (HCT-15 [5]; [7]): > 100000 nM
- GI50 (KM12): 2840 nM
- CC50 (KM12; [7]): > 100000 nM
- GI50 (SNB-19): 3440 nM
- CC50 (SNB-19; [7]): > 100000 nM
- GI50 (M14): 2060 nM
- GI50 (MDA-MB-435): 1770 nM
- LC50 (MDA-MB-435): 6780 nM
- GI50 (SK-MEL-5): 1480 nM
- LC50 (SK-MEL-5): 5300 nM
- GI50 (UACC-257): 2500 nM
- LC50 (UACC-257): > 100000 nM
- GI50 (OVCAR-3): 3180 nM
- LC50 (concentration killing 50% of cells) (OVCAR-3): > 100000 nM
- GI50 (OVCAR-4 [6]): 2550 nM
- LC50 (concentration killing 50% of cells) (OVCAR-4 [6]): > 100000 nM
- GI50 (OVCAR-8): 2050 nM
- LC50 (OVCAR-8): > 100000 nM
- GI50 (NCI/ADR-RES): > 100000 nM
- CC50 (NCI/ADR-RES; [7]): > 100000 nM
- GI50 (786-0): 2130 nM
- GI50 (ACHN): 1900 nM
- CC50 (ACHN; [7]): 6720 nM
- GI50 (SN12C): 2940 nM
- LC50 (SN12C): > 100000 nM
- GI50 (UO-31): 1720 nM
- CC50 (UO-31; [7]): 7270 nM

SMILES: NS(=O)(=O)c1ccc(Nc2nc(N/N=C/c3cccs3)nc(Nc3ccccc3)n2)cc1
- inhibition of growth at 10 µM (CCRF-CEM): 68%
- inhibition of growth at 10 µM (K562): 39%
- inhibition of growth at 10 µM (HOP-92): 44%
- inhibition of growth at 10 µM (NCI-H23): 19%
- inhibition of growth at 10 µM (NCI-H322M [1]): 23%
- inhibition of growth at 10 µM (NCI-H522): 20%
- inhibition of growth at 10 µM (HCT-15 [2]): 14%
- inhibition of growth at 10 µM (HT-29): 29%
- inhibition of growth at 10 µM (SW-620): 10%
- inhibition of growth at 10 µM (SF-295): 23%
- inhibition of growth at 10 µM (SF-539): 34%
- inhibition of growth at 10 µM (SNB-75): 16%
- inhibition of growth at 10 µM (LOX IMVI): 32%
- inhibition of growth at 10 µM (SK-MEL-28): 20%
- inhibition of growth at 10 µM (SK-OV-3): < 10%
- inhibition of growth at 10 µM (A498): 43%
- inhibition of growth at 10 µM (CAKI-1): 44%
- inhibition of growth at 10 µM (RXF 393): 52%
- inhibition of growth at 10 µM (DU-145): 40%
- inhibition of growth at 10 µM (OVCAR-4 [3]): 29%

SMILES: NS(=O)(=O)c1ccc(Nc2nc(N/N=C/c3ccc([N+](=O)[O-])cc3)nc(Nc3ccccc3)n2)cc1
- inhibition of growth at 10 µM (CCRF-CEM): 88%
- inhibition of growth at 10 µM (K562): 79%
- inhibition of growth at 10 µM (HOP-92): 50%
- inhibition of growth at 10 µM (NCI-H23): 87%
- inhibition of growth at 10 µM (NCI-H322M [1]): 60%
- inhibition of growth at 10 µM (NCI-H522): 51%
- inhibition of growth at 10 µM (HCT-15 [2]): 13%
- inhibition of growth at 10 µM (HT-29): 75%
- inhibition of growth at 10 µM (SW-620): 81%
- inhibition of growth at 10 µM (SF-295): 42%
- inhibition of growth at 10 µM (SF-539): 136%
- inhibition of growth at 10 µM (SNB-75): 54%
- inhibition of growth at 10 µM (LOX IMVI): 120%
- inhibition of growth at 10 µM (SK-MEL-28): 64%
- inhibition of growth at 10 µM (SK-OV-3): 32%
- inhibition of growth at 10 µM (A498): 81%
- inhibition of growth at 10 µM (CAKI-1): 49%
- inhibition of growth at 10 µM (RXF 393): 105%
- inhibition of growth at 10 µM (DU-145): 56%
- inhibition of growth at 10 µM (OVCAR-4 [3]): 44%
